Here are results for one substance from US20110076693A1, “METHOD FOR DETECTION AND QUANTIFICATION OF PLK1 EXPRESSION AND ACTIVITY” (The U.S.A. as Represented by the Secretary , Dept.of Health …, priority 2008, published 2011).

For one test, the target named is T1, PBD of Plk1 (Homo sapiens, UniProt P53350).
T1 construct: made in house
In words: Binding of Plk1-phosphorylated 32P-PBIPtide-A6 to bead-bound GST-PBD. The note with it: GST-PBD vs GST-PBD (H538A K540M), TBSN buffer, 1 hour at 4° C.

The subject of test [1] is Plk1. The test is described as follows: Direct Plk1 kinase assay with total HeLa lysates and [γ-32P]ATP using GST-PBIPtides as substrate. Format: biochemical, human. Particulars: shPlk1 HeLa lysates, compared with PBIPtide4. As for the experimental part: FIGS. 1A-1B are digital images of Western blots, a schematic representation of a kinase assay and a set of bar graphs showing that a peptide that contains the T78 motif of PBIP1 (a PBIPtide) can be used to quantitate the kinase activity of Plk1 in vitro. […] FIG. 1A Left, mitotic HeLa lysates were incubated with either bead-immobilized control glutathione S-transferase (GST) or GST-PBIPtide4 in TBSN buffer containing phosphatase inhibitors. Beads were precipitated and washed and then subjected to in vitro kinase assays in the presence of [γ-^32P]-ATP. Samples were separated by sodium dodecyl sulfate polyacrylamide gel electrophoresis (SDS/PAGE), transferred to polyvinylidene fluoride (PVDF), and then exposed (Autorad). The membrane was immunoblotted with the indicated antibodies and then stained with Coomassie (CBB). Note that the anti-p-T78 signal (α-p-T78 panel) is relatively weak because the incubation was carried out in TBSN at 4° C. FIG. 1A Right is schematic diagram illustrating the experimental procedures described in FIG. 1A Left. The ellipsoids depict bead-associated GST-PBIPtide containing the T78 motif. […] The GST-PBIPtide bands were excised, and incorporated 32P was quantified. […]
It was then determined whether the Plk1 activity present in total cellular lysates could be directly measured by incubating the lysates with GST-PBIPtide. […]

The test system of test [2] is Plk1. The test is described as follows: PBIPtide-based Plk1 ELISA with shLuc/shPlk1 HeLa lysates. The note with it: compared with PBIPtide4. (An ELISA detects its analyte on a solid surface through an enzyme-linked reagent.)
Procedure: The ELISA wells were coated with soluble GST-PBIPtide containing the T78 motif and then reacted with total cellular lysates. The Plk1 activity in the total lysates generates the p-T78 epitope to which Plk1 itself binds. After reaction, Plk1 activity is quantified by incubating the ELISA wells with either anti-p-T78 antibody (to detect the p-T78 epitope generated) or anti-Plk1 antibody (to detect Plk1 bound to the p-T78 epitope), followed by HRP-conjugated secondary antibody (the grey antibody with a black dot). The asterisks indicate 3.3′, 5.5′-tetramethylbenzidine (TMB) substrate and its reaction product, generated by HRP. […] HeLa cells were silenced for control luciferase (shLuc) or Plk1 (shPlk1) and then treated with nocodazole for 16 hours to arrest the cells in prometaphase (a condition that maximizes Plk1 activity). […] Buffer indicates no-lysate control. The same lysates were subjected to immunoblotting analysis to determine the level of Plk1 in the lysates. […] GST-PBIPtide-A6-coated ELISA wells were incubated with the indicated amount of recombinant Plk1 purified from Sf9 cells. The level of the p-T78 epitope generated and the amount of Plk1 bound to the p-T78 GST-PBIPtide-A6 were quantified by using anti-p-T78 and anti-Plk1 antibodies, respectively. […] Total lysates were prepared from these cells and applied to the GST-PBIPtide-A6-coated wells. Buffer indicates no-lysate control. […]

T1 sequence (P53350 326-603 limits assumed): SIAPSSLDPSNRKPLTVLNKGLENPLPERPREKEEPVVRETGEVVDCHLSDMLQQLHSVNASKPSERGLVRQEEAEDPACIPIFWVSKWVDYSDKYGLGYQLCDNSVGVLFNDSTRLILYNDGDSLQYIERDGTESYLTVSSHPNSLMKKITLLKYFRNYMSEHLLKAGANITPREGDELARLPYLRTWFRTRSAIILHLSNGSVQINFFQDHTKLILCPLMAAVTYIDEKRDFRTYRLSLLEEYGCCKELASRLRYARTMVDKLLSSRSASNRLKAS

“GST-PBIPtide-A6: N-terminal GST fusion of SEQ ID NO: 8; 6 repeats of the PBIPtide (Y68F T70A Y81F) triple mutant joined by GGPGG linkers”: the “PBD binding after Plk1-dependent phosphorylation of the T78 motif” value with PBD of Plk1 was “sufficient for the PBD binding”. Besides, the “Level of 32P incorporation after Plk1 depletion” value in the test with Plk1 [1] is recorded as “mildly, but reproducibly, lower level”. The “Sensitivity to Plk1 activity” value in the test with Plk1 [2] is “mildly, but reproducibly, increased sensitivity”.
